# Columns and labels:
# [1] = tested on: MCF7 control cells and TIS cells; test: CCK8 assay and microscopy, senolytic effect on control and therapy-induced senescent (TIS) MCF7 cells; format: cell-based; details: for cell viability, TIS group compared to control group: CCK8, MCF7, FIG. 3b
# Protocol: FIGS. 3d and 3e show the results of CCK8 assay and microscopy performed to evaluate the cell killing effect of SGI-1776 after treating MCF7 cells (Ctrl and TIS) with another PIM1 kinase inhibitor, SGI-1776 (Selleckhem, Catalog No. S2198, CAS 1025065-69-3).
# Therapy-induced senescent breast cancer cells were treated with the FDA-approved inhibitors (Table 1) for the 23 genes finally selected in Example 2, the senescent cell-selective cell division inhibitory effect and senolytic effect of the drugs were evaluated by CCK8 assay (D-Plus CCK, cell viability assay kit, Cat CCK-3000, Dong-In LS) (FIG. 3A). In this case, for the control group (cancer cells without therapy-induced senescence), the measurement was made after treatment with the inhibitor at the indicated concentration for 48 hours, and for the therapy-induced senescent cell group, the cancer cells were induced to senescence by treatment with adriamycin for 48 hours as described in Example 1, and then treated with the indicator at the indicated concentration for 48 hours while replacing the culture medium, the inhibitor was treated at the indicated concentration for 48 hours, and then the measurement was made.
# [2] = tested on: SNU601, HSC4, and SW480 cells (control and TIS); test: CCK8 assay and microscopy, senolytic effect on control and TIS gastric, head and neck and colon cancer cells; format: cell-based; details: FIG. 5
# Protocol: FIGS. 5a and 5b show the results of microscopy and CCK8 assay performed to evaluate the cell killing effect of PIM 1/2 inhibitor VI on control (Ctrl) cells and therapy-induced senescent (TIS) cells after treating cancer cell lines (HSC4: head and neck cancer, SNU601: gastric cancer, and SW480: colon cancer) with PIM 1/2 inhibitor VI.
# Therapy-induced senescent breast cancer cells were treated with the FDA-approved inhibitors (Table 1) for the 23 genes finally selected in Example 2, the senescent cell-selective cell division inhibitory effect and senolytic effect of the drugs were evaluated by CCK8 assay (D-Plus CCK, cell viability assay kit, Cat CCK-3000, Dong-In LS) (FIG. 3A). […]
# In order to evaluate the senolytic effect of a Pim-1 kinase inhibitor on gastric cancer (SNU601), head and neck cancer (HSC4), and colon cancer (SW480) cell lines induced to senescence by treatment, the concentration-dependent senolytic effect of the Pim-1 kinase inhibitor was evaluated in the same manner as described in Example 3.
# [3] = tested on: breast cancer cell lines (MCF7, ZR75-1, Hs578T, and MDA-MB-231); test: Cell size and SA-β-gal staining after therapy-induced senescence by adriamycin; format: cell-based; details: 100 nM adriamycin for 48 h, then medium replaced and cultured 5 to 7 days
# Protocol: (§1) To generate therapy-induced senescent tumor cells, breast cancer cell lines with contrasting characteristics (MCF7 and ZR75-1, which are female hormone receptor-positive but relatively less malignant, and Hs578T and MDA-MB-231, which are hormone receptor- and HER2 receptor-negative triple-negative breast cancer cell lines and are relatively more aggressive) were each treated with 100 nM of adriamycin (Selleckhem, Catalog No. S1208, CAS 25316-40-9). After 48 hours, the cell culture medium was replaced and the cells were cultured for 5 to 7 days, thereby generating therapy-induced senescent tumor cells.
# p21 = p21 mRNA expression after therapy-induced senescence by adriamycin; format: cell-based; details: 100 nM adriamycin for 48 h, then medium replaced and cultured 5 to 7 days; MCF7, ZR75-1, Hs578T, MDA-MB-231
# Protocol: as §1
# [4] = tested on: various cancer cell lines (MCF7, MDA-MB 231, MKN1, HSC4, and SNU869); test: Therapy-induced senescence by cisplatin in various cancer cell lines; format: cell-based; details: 10 μM cisplatin; MCF7, MDA-MB 231, MKN1, HSC4, SNU869
# Protocol: (§2) In addition, in order to examine whether therapy-induced senescence (TIS) occurs even when using anticancer agents other than adriamycin, various cancer cell lines (MCF7, MDA-MB 231, MKN1, HSC4, and SNU869) were treated with 10 μM of cisplatin (Selleckhem, Catalog No. S1166 CAS 15663-27-1).
# PIM-1 kinase = PIM-1 kinase mRNA/protein expression after therapy-induced senescence; format: cell-based; details: 10 μM cisplatin; MCF7, MDA-MB 231, MKN1, HSC4, SNU869
# Excerpt: In addition to breast cancer cell lines (MCF7 and MDA-MB231), gastric cancer (SNU601, MKN1, and MKN74), colon cancer (SW480, and Hct116), head and neck cancer (HSC4), cervical cancer (HeLa S3), cholangiocarcinoma (SNU308, SNU478, and SNU1196), pancreatic adenocarcinoma (BxPC3), and prostate cancer (PC3) cell lines were induced to senescence by treatment in the same manner as in Example 1, thereby obtaining therapy-induced senescent cells.
# as §2
# [5] = tested on: senescent cell types, including senescent cancer cells; details: literature (Aging Cell 15, 428-435 (2016); Nat. Med. 22, 78-83 (2016)); cited from earlier work
smiles,measurement,setting,value
CCCOc1ccc(/C=C2\SC(=O)NC2=O)cc1 [PIM1/2 kinase inhibitor VI],"cell viability, TIS group compared to control group",[1],significantly inhibited in a therapy-induced senescent cell group compared to a control group
same,selective senolytic effect on therapy-induced senescent tumor cells,"[1]; CCK8, inhibitor 48 h, TIS by adriamycin vs control, FIG. 3A",exhibited a selective senolytic effect on the therapy-induced senescent tumor cells
same,killing effect on TIS cells,"[1]; FIGS. 3B and 3C, TIS cells",effectively killed the TIS cells
same,cell growth and killing of control cells,"[1]; FIGS. 3B and 3C, control cells, high concentrations",inhibited cell growth in the control cells at high concentrations but hardly killed the control cells
same,senolytic effect on senescent cells compared with ABT-263,"[1]; FIGS. 3B and 3C, versus ABT-263",significantly superior to that of ABT-263
same,killing effect on therapy-induced senescent tumor cells compared to normal tumor cells,"[1]; summary statement, tumor cells induced to senescence by a chemotherapeutic agent",a significant killing effect was observed on the therapy-induced senescent tumor cells compared to normal tumor cells
same,killing effect on therapy-induced senescent cancer cells,"[2]; SNU601, HSC4, SW480 TIS cells",significant killing effect on the therapy-induced senescent cancer cells
same,killing effect on control cells,"[2]; SNU601, HSC4, SW480 control cells",no significant killing effect on the control cells
COc1cccc2c1C(=O)c1c(O)c3c(c(O)c1C2=O)C[C@@](O)(C(=O)CO)C[C@@H]3O[C@H]1C[C@H](N)[C@H](O)[C@H](C)O1 [adriamycin],cell size,[3],the cell size of each breast cancer cell line increased
same,number of cells positive to SA-b-gal,[3],"the number of cells positive to SA-b-gal, a senescence marker, increased"
same,mRNA expression of p21,p21,increase significantly in each cell line
N.N.[Cl][Pt][Cl] [cisplatin],occurrence of therapy-induced senescence (TIS),[4],therapy-induced senescence (TIS) occurred
same,mRNA expression of the PIM-1 kinase gene,PIM-1 kinase,significantly increased
CN1CCC(CNc2ccc3ncc(-c4cccc(OC(F)(F)F)c4)n3n2)CC1 [SGI-1776],cytotoxicity to TIS cells compared to control cells,"[1]; FIG. 3D, MCF7",high cytotoxicity to the TIS cells compared to the control cells
CC1(C)CCC(c2ccc(Cl)cc2)=C(CN2CCN(c3ccc(C(=O)NS(=O)(=O)c4ccc(N[C@H](CCN5CCOCC5)CSc5ccccc5)c(S(=O)(=O)C(F)(F)F)c4)cc3)CC2)C1 [ABT-263],"cell viability, TIS group compared to control group",[1],significantly inhibited in a therapy-induced senescent cell group compared to a control group
same,killing effect on both control and TIS cells,[1]; FIGS. 3B and 3C,almost complete killing effect on both the control and TIS cells
same,"killing effect, control vs TIS cells","[1]; FIGS. 3B and 3C, difference between control and TIS cells",significant difference between the killing effect on the control cell and the killing effect on the TIS cells
same,elimination of senescent cell types,[5],"able to effectively eliminate a wide range of senescent cell types, including senescent cancer cells"

# — patent publication US20260357266A1, “COMPOSITION FOR KILLING A THERAPY-INDUCED SENESCENCE (TIS) CELLS AND USES THEREOF” (AJOU UNIVERSITY INDUSTRY-ACADEMIC COOPERATION FOUNDATION, priority 2022, published 2026)
